Details of data set [1]: method as in PMID 31019997. The note with it: mice; cited from earlier work.
The test system of data set [2] is patients with sickle cell disease and healthy volunteers. The settings on record: cited from earlier work.
Data set [3] relates to male C57BL/6 J mice, tMCAO. Briefly: RT-qPCR of inflammatory markers in brain on day 8 after tMCAO. It is filed as in vivo, mouse. Here is the method:
After MRIs were completed, mice were euthanized with an overdose of isoflurane, brains harvested, split into ipsilateral and contralateral hemispheres, and immediately frozen with liquid N2. Brain hemispheres were homogenized in mortar and pestles with liquid N2. RNA was extracted from brain homogenates (Fig. 7b) or MMC cell pellets (Fig. 2) with Trizol (ThermoFisher, Catalog # 15,596,026) according to the manufacturer’s protocol. RNA purity and concentration were assessed using a Nanodrop Spectrophotometer ND-1000 (Marshall Scientific). The 260 nm/280 nm absorption ratios for the samples ranged from 1.95 to 2.00. Subsequently, a cDNA library was made with a High-Capacity cDNA Reverse Transcription Kit (ThermoFisher Scientific, Catalog# 4,374,967), with 2 µg of total RNA per […]. Reactions were carried out in a PTC-200 Peltier Thermal Cycler; the conditions were as follows: 25 °C for 10 min, 37 °C for 120 min, 85 °C for 5 min, with final storage at 4 °C. RT-qPCR reactions were conducted in an Applied Biosystems Viia7 Real-Time PCR System using Maxima SYBR Green/ROX qPCR Master Mix (ThermoFisher Scientific, Catalog #K022) and with the recommended three-step cycling protocol. All CT values were normalized to the geometric mean of three housekeeping genes, β-actin, GAPDH, and 18S, as recommended by Vandesompele et al.. Fold change was calculated by the ∆∆Ct method. Primer sequences are provided in Supplementary Table 1. For brain samples, relative mRNA levels were generated by normalizing to sham.
Statistical analysis of infarct percentage comparing two groups was performed using unpaired t-test. Statistical analysis of three groups (e.g., vehicle vs senicapoc 10 mg/kg vs senicapoc 40 mg/kg) was performed with analysis of variance (ANOVA) with a post hoc pair-wise comparison using Tukey’s test (Origin software), as previously described. All data are shown as box-and-whisker plots with an overlay of the individual animal data. The boxes show mean ± S.E.M, and the whiskers show confidence intervals. The categorical neurological scoring data in Fig. 3 b is shown as a scatter plot without means or S.E.M and was analyzed with the Mann–Whitney U test as per recommendations for optimal presentation and analysis of non-parametric data in pre-clinical stroke studies by Dirnagl. For the IHC data in Fig. 5 comparing two groups, unpaired t-tests were performed. The brain qPCR data in Fig. 7 was analyzed in Prism using one-way ANOVA followed by Dunnett’s test to correct for multiple comparisons. For all statistical testing, P < 0.05 was used as the level of significance. * = P < 0.05, ** = P < 0.01, *** = P < 0.001.
Background: In qPCR the cycle at which signal appears reflects the starting amount.

Data set [4] relates to MMC (mouse microglial cell line). As to the kind of experiment: Fluo-4 calcium imaging of ATP-induced Ca2+ signaling in MMC. Type of data set: cell-based. The settings on record: 100 µM ATP, Fluo-4 ΔF/F. Here is the method: Real-time changes of [Ca^2+]i in MMCs seeded on glass coverslips at a density of 10,000 cells/cm^2 were measured using the time-lapse imaging module on a BZ-X780 fluorescence microscopy (Keyence LLC, Campbell, CA) and the fluorescent calcium indicator Fluo-4/AM from Invitrogen (ThermoFisher, Waltham, MA) as previously described. For testing the effect of KCa3.1 inhibition on intracellular calcium changes, cells were pre-incubated with senicapoc during the de-esterification step and throughout the course of the experiment. All fluorescence measurements were made at 2-s intervals at room temperature from subconfluent areas of the coverslips to ensure that only individual microglia were measured. Image data were analyzed off-line with Fiji using the ROI-1 click tool and the change in microglial [Ca^2+]i was represented as ΔF/F (change in fluorescence after baseline-subtraction).

Data set [5] is described as follows: Plasma protein binding by rapid equilibrium dialysis. The note with it: mouse plasma, triplicate. It is filed as in vitro ADME. Here is the method:
In order to determine whether senicapoc sufficiently engages its target, additional mice were subjected to 60 min of MCAO, treated with 40 mg/kg senicapoc IP 12 h after reperfusion and then sacrificed 1 h, 4 h, and 12 h later. Mice were deeply anesthetized with isoflurane, and blood was collected from the vena cava into EDTA tubes, and then transcardially perfused with 30 mL of saline. The brain was removed, and the forebrain divided into ipsi- and contralateral side. Brain and plasma samples were stored at − 80 °C pending analysis and then prepared and analyzed as previously described using a Waters Acquity UPLC (Waters, NY) equipped with a Acquity UPLC BEH 1.7 μm C-18 column interfaced to a TSQ Quantum Access Max mass spectrometer (Thermo Fisher Scientific, MA). Senicapoc was analyzed by the selective reaction monitoring transition of its molecular ion peak 324.09 (M + 1) into 228.07, 200.07, 183.11, and 122.18 m/z. An 8-point calibration curve ranging from 50 nM to 10 μM was used for quantification. Senicapoc plasma protein binding was determined with mouse plasma or mouse brain extract in triplicate using rapid equilibrium devices with a molecular weight cutoff of 8 kD (RED, Fisher Scientific).
In general terms: In equilibrium dialysis free small molecules cross a membrane that holds back macromolecules.

The mark [6] stands for this setting: fold-change relative to sham, day 8, adjusted P 0.01.
Where [7] appears, read: fold-change relative to sham, day 8, adjusted P <0.001.

The term half-life denotes how long it takes for the measured level to halve. Take `NC(=O)C(c1ccccc1)(c1ccc(F)cc1)c1ccc(F)cc1` [senicapoc]: in data set [1], the half-life was 1 h. For the same compound, the “hemolysis, hematocrit and hemoglobin levels in phase II study” value in data set [2] (10 mg/day, double-blind placebo-controlled) was “reduced hemolysis and significantly increased hematocrit and hemoglobin levels”. For the same compound, in data set [2], the “phase III endpoint: reduction in number of vaso-occlusive pain crises” value was “did not meet the set clinical endpoint”. Besides, the “tolerability in dose escalating phase I clinical trials” value in data set [2] (healthy volunteers and patients with sickle cell disease) is given as “well tolerated”. Further, in data set [3] (40 mg/kg started 3 h, day 8, vs vehicle), the “expression of IL-1β, TNF-α, IL-6, CD68, NLRP3, IL-2, IFN-γ, IL-4 and IL-10 in the infarcted hemisphere” value is given as “significantly reduced”. Besides, in data set [3] (fold-change relative to sham, day 8, 40 mg/kg started 3 h, adjusted P <0.001), the “il1b mRNA, Mean Diff. vehicle-treated ipsi vs senicapoc-treated ipsi” value stood at 3.115. Moreover, in data set [3] (fold-change relative to sham, day 8, adjusted P 0.003), the “tgfb mRNA, Mean Diff. vehicle-treated ipsi vs senicapoc-treated ipsi” value is on record as 2.876. In data set [3] (setting [6]), the “il4 mRNA, Mean Diff. vehicle-treated ipsi vs senicapoc-treated ipsi” value was 2.833 and the “nlrp3 mRNA, Mean Diff. vehicle-treated ipsi vs senicapoc-treated ipsi” value was 4.839. Moreover, in data set [3] (fold-change relative to sham, day 8, adjusted P 0.48), the “inos mRNA, Mean Diff. vehicle-treated ipsi vs senicapoc-treated ipsi” value is 6.938. In addition, in data set [3] (fold-change relative to sham, day 8, adjusted P 0.79), the “bdnf mRNA, Mean Diff. vehicle-treated ipsi vs senicapoc-treated ipsi” value was -11.09. In data set [3] (fold-change relative to sham, day 8, adjusted P 0.98), the “il17a mRNA, Mean Diff. vehicle-treated ipsi vs senicapoc-treated ipsi” value was 0.3131. Also, in data set [3] (setting [7]), the “cd68 mRNA, Mean Diff. vehicle-treated ipsi vs senicapoc-treated ipsi” value is 12.76; the “ifng mRNA, Mean Diff. vehicle-treated ipsi vs senicapoc-treated ipsi” value is 8.327; the “il2 mRNA, Mean Diff. vehicle-treated ipsi vs senicapoc-treated ipsi” value worked out at 10.6; the “il6 mRNA, Mean Diff. vehicle-treated ipsi vs senicapoc-treated ipsi” value is on record as 7.107. Moreover, in data set [3] (setting [7]), the “il10 mRNA, Mean Diff. vehicle-treated ipsi vs senicapoc-treated ipsi” value was 13.82 and the “tnfa mRNA, Mean Diff. vehicle-treated ipsi vs senicapoc-treated ipsi” value is reported as 6.221. In addition, the “Ca2+ influx induced by ATP” value in data set [4] was “concentration-dependently reduced”. Further, in data set [5], the “binding to plasma protein” value came out at 96.8 ± 0.5%.

Values taken from PMC11106165, “Repurposing the KCa3.1 Blocker Senicapoc for Ischemic Stroke” (Translational Stroke Research, 2023).
